Molecular target: T1, OGA (O-GlcNAcase) (Homo sapiens, UniProt O60502)
T1 sequence (O60502 1-916): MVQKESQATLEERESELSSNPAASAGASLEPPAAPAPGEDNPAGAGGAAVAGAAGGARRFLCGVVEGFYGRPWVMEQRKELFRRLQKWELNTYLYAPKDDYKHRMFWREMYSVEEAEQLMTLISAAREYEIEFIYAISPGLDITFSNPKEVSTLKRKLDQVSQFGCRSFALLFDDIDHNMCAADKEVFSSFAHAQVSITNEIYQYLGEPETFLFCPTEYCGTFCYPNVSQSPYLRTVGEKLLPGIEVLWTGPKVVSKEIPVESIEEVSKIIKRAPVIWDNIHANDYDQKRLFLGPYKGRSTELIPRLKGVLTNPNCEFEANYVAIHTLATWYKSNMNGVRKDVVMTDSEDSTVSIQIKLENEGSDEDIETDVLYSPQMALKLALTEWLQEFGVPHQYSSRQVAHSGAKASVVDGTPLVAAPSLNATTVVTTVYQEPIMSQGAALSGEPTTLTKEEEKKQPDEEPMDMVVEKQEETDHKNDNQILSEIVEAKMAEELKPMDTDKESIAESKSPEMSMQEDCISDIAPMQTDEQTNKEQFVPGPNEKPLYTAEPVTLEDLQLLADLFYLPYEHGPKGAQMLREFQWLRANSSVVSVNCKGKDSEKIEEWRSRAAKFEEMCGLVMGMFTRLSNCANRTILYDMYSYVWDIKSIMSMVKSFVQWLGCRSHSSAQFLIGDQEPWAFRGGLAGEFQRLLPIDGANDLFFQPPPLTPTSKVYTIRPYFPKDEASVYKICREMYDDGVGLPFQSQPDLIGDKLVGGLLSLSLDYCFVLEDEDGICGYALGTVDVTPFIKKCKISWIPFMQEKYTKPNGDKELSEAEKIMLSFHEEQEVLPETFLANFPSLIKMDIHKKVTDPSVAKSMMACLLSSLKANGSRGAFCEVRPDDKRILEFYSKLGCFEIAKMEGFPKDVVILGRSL
Assay: Michaelis-Menten hydrolysis kinetics, absorbance at […] nm
Type: biochemical

Michaelis-Menten hydrolysis kinetics, absorbance at 296 nm [μmol s^−1 mg^−1 M^−1] | SMILES
40.7 | COc1ccc(O[C@@H]2O[C@H](CO)[C@@H](O)[C@H](O)[C@H]2NC(C)=O)cc1 [compound 6, para-methoxyphenyl 2-acetamido-2-deoxy-β-D-glucopyranoside]
8.1 | COc1ccc(O[C@@H]2S[C@H](CO)[C@@H](O)[C@H](O)[C@H]2NC(C)=O)cc1 [compound 7, para-methoxyphenyl 2-acetamido-2-deoxy-5-thio-β-D-glucopyranoside]
